{"source": "patent US5650442A", "about": "(priority 1994, dated 1997)", "key": {"rodent tumors": {"system": "rodent tumors", "conditions": "hyperbaric oxygen (100%); cited from earlier work"}, "cells in culture": {"system": "cells in culture", "conditions": "aerobic (~20% oxygen) vs hypoxic (<0.5% oxygen); cited from earlier work"}, "[1]": {"system": "Chinese hamster V79 lung fibroblasts", "assay": "Radiation survival of hypoxic V79 monolayers gassed with nitrogen and exposed to NO gas", "type": "cell-based", "description": "(§1) Hypoxic Chinese hamster V79 lung fibroblasts of Example 2 were irradiated at room temperature with 4 MeV photons from a linear accelerator at a dose rate of 1.5 Gy/min. Full electron equilibrium was ensured for all irradiations.\n(§2) Following irradiation, the various cell suspensions were pipetted, counted, diluted, and plated for macroscopic colony formation. Each dose determination was plated in triplicate and experiments were repeated a minimum of two times. Plates were incubated for seven days, after which colonies were fixed with methanol/acetic acid (3:1), stained with crystal violet, and counted. Colonies containing >50 cells were scored and graphed as FIGS. 1-3. Error bars in the graphs represent the standard deviation of the mean and are shown when larger than the symbol used to designate a data point. Survival curve data were fitted using a linear quadratic model of Albright (Radiat. Res., 112, 331-340 (1987)), and the survival curves shown in the figures represent the best fit curves for the experimental data points. Sensitizer enhancement ratios (SER) were calculated by dividing the radiation dose for control hypoxic conditions by the radiation dose for various agents under hypoxic conditions at the 1% surviving fraction level."}, "[2]": {"system": "Chinese hamster V79 cells", "assay": "Survival of hypoxic V79 cells after a single radiation dose", "type": "cell-based", "conditions": "vs control cells", "description": "Chinese hamster V79 cells were exposed to 15 Gy radiation under hypoxic conditions in the absence or presence of 1 mM SPER/NO (H2 N(CH2)3 N[N(O)NO]^- (CH2)4 NH2^+ (CH2)3 NH2).\nChinese hamster V79 cells were exposed to 20 Gy radiation under hypoxic conditions in the absence or presence of 2 mM SNAP.\nChinese hamster V79 cells were exposed to a single 20 Gy dose of radiation in the absence or presence of 2 mM SIN-1 or PAPA/NO. […] The data are consistent with the requirement of SIN-1 for oxygen, unlike the NONOates, which release NO independent of oxygen levels."}, "hypoxic cells": {"system": "hypoxic cells", "conditions": "without the nitrobenzoyl group; cited from earlier work"}, "[3]": {"system": "Chinese hamster V79 fibroblasts", "assay": "Protection of V79 cells from cisplatin cytotoxicity", "type": "cell-based", "conditions": "1 mM, 1 hr", "description": "Chinese hamster V79 fibroblasts were exposed to varying concentrations of cisplatin under aerobic conditions for 1 hr in the presence or absence of 1 mM PAPA/NO, n-propyl-1,3-propane diamine (PPD), or released PAPA/NO under aerobic conditions. Methods used were as described in Examples 2 and 13."}, "[4]": {"system": "Chinese hamster V79 fibroblasts", "assay": "Chemosensitization of V79 cells to bioreductive agents (mitomycin C, SR 4233)", "conditions": "hypoxic, 1 hr"}, "lungs": {"system": "lungs", "conditions": "NO gas, in vivo; cited from earlier work"}, "hypoxic bacterial cells": {"system": "hypoxic bacterial cells", "conditions": "cited from earlier work"}, "[5]": {"system": "Chinese hamster V79 lung fibroblasts", "assay": "Radiation survival of hypoxic V79 cells (metabolism-mediated oxygen depletion), clonogenic assay, SER", "type": "cell-based", "conditions": "for modification of hypoxic radiosensitivity: 2.0 mM; for SER: 2.00 mM, hypoxic, 1% surviving fraction level, ± SD", "description": "(§3) Chinese hamster V79 lung fibroblasts were cultured in F12 medium supplemented with 10% fetal calf serum and antibiotics. […] The assay system was specifically designed to evaluate radiation sensitivity of cells exposed to radiation under both aerobic and hypoxic conditions (Mitchell et al., Radiat. Res., 96, 422-428 (1983); Russo et al., Radiat. Res., 103, 232-239 (1985); and DeGraff et al., Int. J. Radiat. Oncol. Biol. Phys., 16, 1021-1024 (1989)).\n(§4) When cultured cells were exposed to DEA/NO in subsequent examples, DEA/NO in F12 medium with 10 mM HEPES buffer, pH 7.0, was used. […] Control cells in subsequent examples were exposed to 0.02N NaOH, instead of DEA/NO.\nThe induction of hypoxia in dense cell suspensions by metabolism-mediated oxygen depletion was carried out as described by Mitchell et al. (supra) and Phillips et al. (Int. J. Radiat. Oncol. Biol. Phys., 12, 1627-1635 (1986)). Briefly, stock cultures of exponentially growing Chinese hamster V79 lung fibroblasts in 850 cm^2 roller bottles were trypsinized, rinsed with medium, and counted. Samples of 10^8 cells were then placed in 15 ml centrifuge tubes, centrifuged at 1,000 rpm for 5 min at 25° C., and rinsed once with medium or medium containing DEA/NO (final concentrations ranging from 0.1-2.0 mM), nitrite, diethylamine, or DEA/NO that had been allowed to decompose in full medium overnight at 37° C.\nThe cell suspension was taken up into a 3 ml glass syringe with a 18 gauge spinal needle. Air bubbles were removed, and a 25 gauge needle was fitted onto the syringe. The syringe was rotated by hand at room temperature for 20 min to allow for cellular metabolic oxygen consumption. The syringe was then placed in a lucite block and irradiated. After a given dose of radiation, 1-3 drops of cell suspension were discarded, and 1-2 drops were collected in tubes containing drug-free medium. In this manner an entire hypoxic survival curve for a given treatment condition can be obtained from a single syringe.\nas §1, §2\n(§5) Radiation survival curves for V79 cells exposed to varying concentrations of DEA/NO and various DEA/NO decomposition products under hypoxic conditions (metabolic hypoxia induction) are shown in FIG. 1A, which is a graph of the surviving fraction versus dose (Gy)."}, "[6]": {"system": "Chinese hamster V79 lung fibroblasts", "assay": "Radiation survival of aerobic V79 cells, clonogenic assay", "type": "cell-based", "conditions": "2.0 mM", "description": "as §3, §4, §2"}, "[7]": {"system": "Chinese hamster V79 lung fibroblasts", "assay": "Cytotoxicity of the agents alone to V79 cells, clonogenic assay", "conditions": "2.0 mM", "description": "as §3, §4\nas §5, with “(Gy). Lines in FIG. 1A represent control (.circle-solid.) and 0.1 mM (Δ), 0.5 mM (.largecircle.), 1.0 mM (.quadrature.), and 2.0 mM (.box-solid.) DEA/NO. Survival curves were corrected for drug cytotoxicity as appropriate.” for “(Gy).”\nDEA/NO (2.0 mM) was allowed to decompose to liberate NO in medium maintained at 37° C. overnight in a flask open to the air for use as an additional control. The medium containing the DEA/NO decomposition products was then used to evaluate possible effects on radiosensitization."}, "normal tissues": {"system": "normal tissues", "conditions": "clinical radiotherapy trials; cited from earlier work"}, "[8]": {"system": "transplantable murine tumor", "conditions": "mouse, in vivo; cited from earlier work"}, "[9]": {"system": "embryohal ovarian carcinoma (EOC) ascites tumors", "assay": "Survival of mice with EOC ascites tumors treated with melphalan with or without DEA/NO", "type": "in vivo, C3H mice", "description": "Female C3H mice with embryohal ovarian carcinoma (EOC) ascites tumors were generated by intraperitoneal injection of 1.0×10^5 EOC cells at 10 weeks. Eight days later, when ascites were grossly evident, the animals were injected intraperitoneally with phosphate-buffered saline (PBS) as a control, melphalan (6.25 mg/kg), or melphan in combination with DEA/NO (70 mg/kg). Animals were assessed daily for survival.\nFIG. 17 is a graph of % survival of animals versus days after treatment showing survival curves for animals treated with melphalan in the presence or absence of DEA/NO compared to control animals. Median survival of the control group was 15 days. Median survival of the group of mice treated with melphalan alone was 20 days, whereas median survival of the group of mice treated with melphalan and DEA/NO was 27 days."}}, "note": "“Also recorded” adds a separate entry of the source."}
{"compound": "O=O", "note": "[oxygen]", "values": [{"measurement": "hypoxic radiosensitization in rodent tumors", "setting": "rodent tumors", "value": "some degree of hypoxic radiosensitization in rodent tumors"}, {"measurement": "enhancement of killing of cells in culture with X-rays (factor)", "setting": "cells in culture", "value": "2-3"}, {"measurement": "EC50", "setting": "[1]; Cricetulus griseus, Fibroblast, hypoxic cell radiosensitization, read-out: k value (concentration required to yield half the maximum effect)", "value": 2500, "unit": "µg/mL"}]}
{"compound": "CC(=O)N[C@H](C(=O)O)C(C)(C)SN=O", "note": "[SNAP, S-nitroso-N-acetyl penicillamine, reference compound]", "values": [{"measurement": "susceptibility of hypoxic cells to radiation", "setting": "[2]; 2 mM plus 20 Gy, Example 7", "value": "significantly more susceptible to radiation than control cells"}]}
{"compound": "NCCCCNCCCN", "note": "[spermidine]", "values": [{"measurement": "sensitizing properties", "setting": "hypoxic cells", "value": "failed to demonstrate any sensitizing properties whatsoever"}]}
{"compound": "CCCN(CCCN)/[N+]([O-])=N/O", "note": "[PAPA/NO]", "values": [{"measurement": "protection against aerobic cisplatin-induced cytotoxicity", "setting": "[3]", "value": "protected V79 fibroblasts against aerobic cisplatin-induced cytotoxicity"}, {"measurement": "susceptibility of hypoxic cells to radiation", "setting": "[2]; 2 mM plus 20 Gy, Example 10", "value": "much more susceptible to radiation than control cells"}, {"measurement": "enhancement of hypoxic cytotoxicity of SR 4233", "setting": "[4]; 25 μm SR 4233, 1 mM", "value": "enhance the hypoxic cytotoxicity of SR 4233"}, {"measurement": "colonies formed when 100,000 cells were plated", "setting": "[4]; 25 μm SR 4233 plus 1 mM", "value": "no colonies were formed"}]}
{"compound": "nitric oxide [NO gas]", "values": [{"measurement": "damage on administration of high concentrations", "setting": "lungs", "value": "damage to the lungs"}, {"measurement": "toxicity in the absence of radiation", "setting": "hypoxic bacterial cells", "value": "nontoxic in the absence of radiation"}, {"measurement": "radiosensitization of hypoxic bacterial cells", "setting": "hypoxic bacterial cells; ionizing radiation", "value": "sensitizes hypoxic bacterial cells to ionizing radiation"}, {"measurement": "SER", "setting": "[1]; 10^5 ppm NO, hypoxic", "value": 3.2}, {"measurement": "hypoxic cell radiosensitization", "setting": "[1]; NO gas vs control / oxygen", "value": "potent hypoxic cell radiosensitizer; also recorded: not as efficient as oxygen in hypoxic cell radiosensitization"}]}
{"compound": "O=NO", "note": "[Nitrite, nitrite, reference compound]", "values": [{"measurement": "modification of hypoxic radiosensitivity", "setting": "[5]", "value": "nor did any of these agents significantly modify hypoxic radiosensitivity"}, {"measurement": "SER", "setting": "[5]", "value": 1.0}, {"measurement": "effect on aerobic radiosensitivity", "setting": "[6]", "value": "did not significantly alter the aerobic radiosensitivity"}, {"measurement": "cytotoxicity of decomposition products alone", "setting": "[7]", "value": "Neither nitrite, diethylamine, or decomposed DEA/NO alone resulted in any cytotoxicity"}]}
{"compound": "NCCCNCCCCNCCCN", "note": "[spermine]", "values": [{"measurement": "sensitizing properties", "setting": "hypoxic cells", "value": "failed to demonstrate any sensitizing properties whatsoever"}]}
{"compound": "COCC(O)Cn1ccnc1[N+](=O)[O-]", "note": "(centres unmarked) [Misonidazole, misonidazole]", "values": [{"measurement": "toxicity to normal tissues", "setting": "normal tissues", "value": "toxic to normal tissues, causing peripheral neuropathy"}]}
{"compound": "Cl.N=c1c[n+](N2CCOCC2)[n-]o1", "note": "[SIN-1, 3-morpholino-sydnonimine hydrochloride, reference compound]", "values": [{"measurement": "enhancement of tumor radiation sensitivity", "setting": "[8]", "value": "enhances the radiation sensitivity of a transplantable murine tumor"}, {"measurement": "susceptibility of hypoxic cells to radiation", "setting": "[2]; 2 mM plus 20 Gy, Example 10", "value": "not significantly sensitized to radiation as compared to control cells"}]}
{"compound": "N[C@@H](Cc1ccc(N(CCCl)CCCl)cc1)C(=O)O", "note": "[melphalan]", "values": [{"measurement": "Overall survival vs control group", "setting": "[9]; log-rank testing", "value": "significantly longer than the control group"}, {"measurement": "Median survival", "setting": "[9]; melphalan 6.25 mg/kg i.p., with or without DEA/NO 70 mg/kg", "value": 20, "unit": "days"}]}
{"compound": "CCNCC", "note": "[Diethylamine, diethylamine, reference compound]", "values": [{"measurement": "modification of hypoxic radiosensitivity", "setting": "[5]", "value": "nor did any of these agents significantly modify hypoxic radiosensitivity"}, {"measurement": "SER", "setting": "[5]", "value": 1.0}, {"measurement": "effect on aerobic radiosensitivity", "setting": "[6]", "value": "did not significantly alter the aerobic radiosensitivity"}, {"measurement": "cytotoxicity of decomposition products alone", "setting": "[7]", "value": "Neither nitrite, diethylamine, or decomposed DEA/NO alone resulted in any cytotoxicity"}]}
{"compound": "NCCCNCCCCN(CCCN)/[N+]([O-])=N/O", "note": "[SPER/NO]", "values": [{"measurement": "susceptibility of hypoxic cells to radiation", "setting": "[2]; 1 mM plus 15 Gy", "value": "more susceptible to radiation than control cells"}]}
